Experimental data taken from the NIST ThermoML archive (doi:10.1021/acs.jced.9b00021).
Values joined by “and” are separate entries in the source; they are usually repeats but may differ in a detail not shown here. Equal entries are not always repeated. ± gives the expanded uncertainty stated by the source.

Settings: 400 kPa, Liquid, Concentric cylinders viscometry

Compound: CN(CCO)CCO [N-methyldiethanolamine]
- viscosity (298.15 K): 73.1 ± 0.58 mPa·s
- viscosity (303.15 K): 55.89 ± 0.39 mPa·s
- viscosity (308.15 K): 43.45 ± 0.35 mPa·s
- viscosity (313.15 K): 34.15 ± 0.3 mPa·s
- viscosity (318.15 K): 27.15 ± 0.27 mPa·s
- viscosity (323.15 K): 21.82 ± 0.24 mPa·s
- viscosity (328.15 K): 17.79 ± 0.23 mPa·s
- viscosity (333.15 K): 14.63 ± 0.22 mPa·s
- viscosity (338.15 K): 12.2 ± 0.21 mPa·s
- viscosity (343.15 K): 10.21 ± 0.21 mPa·s
- viscosity (348.15 K): 8.61 ± 0.21 mPa·s and 8.6 ± 0.21 mPa·s
- viscosity (353.15 K): 7.31 ± 0.21 mPa·s
- viscosity (358.15 K): 6.28 ± 0.2 mPa·s and 6.29 ± 0.2 mPa·s
- viscosity (363.15 K): 5.43 ± 0.2 mPa·s
- viscosity (368.15 K): 4.72 ± 0.2 mPa·s
- viscosity (373.15 K): 4.12 ± 0.2 mPa·s
